Reference: US11666558B2, “Methods of treating intraocular pressure with activators of Tie-2” (EyePoint Pharmaceuticals, Inc., priority 2015, dated 2023)
Where two headings read alike, the source gives them in different places. Values belong to the molecule of their own block, whether it stands above or below them.

What was measured:
[1] = In vitro diffusion across rabbit cornea and sclera in Franz cell; format: in vitro ADME; conditions: 1.5% of the sodium salt with 5% HPβCD in 50:50 D5W:sterile water
[2] = Plasma concentrations and pharmacokinetic parameters after topical ocular, subcutaneous and intravitreal administration; format: in vivo, New Zealand White rabbits; conditions: plasma, plasma; for AUC(0-t): read-out: AUClast (± SE); for concentration at 0.5 hr: 0.50 hr
Method: To measure the concentration of Compound 1 in plasma and ocular tissues following topical ocular, subcutaneous, and intravitreal administration, New Zealand White rabbits were administered Compound 1, and plasma and ocular samples were collected at pre-determined time points. Compound 1 formulations were prepared fresh on each day of dosing.
New Zealand White rabbits weighing 2.5 to 3.5 kg were used on this study. Rabbits were housed one per cage. Animals were not fasted and only healthy animals with no ocular illness were used. Two rabbits per group were sacrificed at each of four ocular tissue sampling time points for a total of eight rabbits per group.
Animals were anesthetized for ocular (topical) and intravitreal dosing following the 12IA7 IACUC protocol. Each rabbit received a bolus dose of test formulation either via topical ocular administration 3 times daily on Days 1 and 2 (at 0, 6, and 12 hours), and once on Day 3 (at 0 hours) into both eyes; via intravitreal administration into both eyes once on Day 1 (at 0 hours); or via subcutaneous administration 2 times daily on Days 1 and 2 (at 0 and 8 hours) and once daily on Day 3 (at 0 hours). Doses were given within an approximately 1 hour window each day where applicable.
Each blood sample was collected on Day 3 post dose at pre-determined time points from the rabbits via an ear vessel and placed into chilled polypropylene tubes containing sodium heparin as an anticoagulant. Samples were spun by centrifuge at 4° C. and 3,000×g for 5 minutes. Samples were maintained chilled throughout processing. Each plasma sample was placed on dry ice and stored in a freezer at −60° C. to −80° C. pending bioanalysis.
An LC-MS/MS method was developed for the determination of Compound 1 in rabbit aqueous tissues (plasma, aqueous and vitreous humor) and solid ocular tissue samples. A pre-study standard curve was analyzed to determine the specificity, range, and lower limit of quantitation of the method. Plasma and tissue homogenate study samples were extracted and analyzed. All the samples were treated identically to the standards.
One eight-point standard curve was used in each analytical batch. To be accepted, each batch must have had at least five of eight standards with accuracy within ±20% of nominal, except at the lower limit of quantification (LLOQ), where ±25% was acceptable.
Pharmacokinetic parameters were calculated from the time course of the plasma concentration. The maximum plasma concentration (Cmax) and time to the maximum plasma drug concentration (Tmax) were the observed values for each concentration-time profiles. The area under the plasma drug concentration-time curve (AUClast, with last being from time 0 to the last quantifiable point) was calculated using the trapezoidal formula. The mean residence time MRTlast was calculated as a ratio of AUMClast (area under the first movement curve) to AUClast.

[3] = New Zealand White, rabbit, other: intravitreal, 1.54 mg/kg, intravitreal 2.5 mg/eye (~1.54 mg/kg), suspension
[4] = New Zealand White, rabbit, other: intravitreal, 2.5 mg, intravitreal 2.5 mg/eye (~1.54 mg/kg), suspension
[5] = New Zealand White, rabbit, other: intravitreal, 2.5 mg/eye, intravitreal 2.5 mg/eye (~1.54 mg/kg), suspension, read-out: plasma Average
[6] = New Zealand White, rabbit, other: intravitreal, 2.5 mg/eye, intravitreal 2.5 mg/eye (~1.54 mg/kg), suspension, read-out: plasma Conc., individual rabbit
[7] = New Zealand White, rabbit, sc, 5 mg/kg, subcutaneous 5 mg/kg/dose, suspension
[8] = New Zealand White, rabbit, subcutaneous, 5 mg/kg/dose, subcutaneous 5 mg/kg/dose, suspension, read-out: plasma Average
[9] = New Zealand White, rabbit, subcutaneous, 5 mg/kg/dose, subcutaneous 5 mg/kg/dose, suspension, read-out: plasma Conc., individual rabbit
[10] = intravitreal suspension, normalized by 1.54 mg/kg
[11] = subcutaneous suspension, normalized by 5 mg/kg

diffusion across rabbit cornea and sclera [1]: substantial diffusion
Structure (SMILES): COC(=O)N[C@@H](Cc1ccccc1)C(=O)N[C@@H](Cc1ccc(NS(=O)(=O)O)cc1)c1csc(-c2cccs2)n1 [Compound 1]

AUC(0-inf) [2, 3]: 746 ng·h/mL
Cmax [2, 3]: 25.3 ng/mL
MRT last [2, 3]: 19.1 h
half-life [2, 3]: 16.5 h
AUC(0-t) [2, 3]: 707 ng·h/mL
Tmax ([2]; New Zealand White, rabbit, other: intravitreal, 1.54 mg/kg, intravitreal 2.5 mg/eye (~1.54 mg/kg), suspension, read-out: tmax): 1 h
AUC(0-inf) [2, 4]: 746 ng·h/mL
Cmax [2, 4]: 25.3 ± 9.3 ng/mL
MRT last [2, 4]: 19.1 h
half-life [2, 4]: 16.5 h
AUC(0-t) [2, 4]: 707 ± 53.1 ng·h/mL
Tmax ([2]; New Zealand White, rabbit, other: intravitreal, 2.5 mg, intravitreal 2.5 mg/eye (~1.54 mg/kg), suspension, read-out: tmax): 1 h
concentration at 1 h ([2]; New Zealand White, rabbit, other: intravitreal, 2.5 mg/eye, intravitreal 2.5 mg/eye (~1.54 mg/kg), suspension, 1.0 hr, read-out: plasma Average): 25.3 ng/mL
concentration at 3 h [2, 5]: 24.4 ng/mL
concentration at 3 h [2, 6]: 28.4 ng/mL
concentration at 6 h [2, 5]: 23.1 ng/mL
concentration at 6 h [2, 6]: 22 ng/mL
concentration at 24 h [2, 5]: 12.3 ng/mL
concentration at 24 h [2, 6]: 9.96 ng/mL
concentration at 48 h [2, 5]: 3.63 ng/mL
concentration at 48 h [2, 6]: 2.69 ng/mL
concentration at 72 h [2, 5]: 1.65 ng/mL
concentration at 72 h [2, 6]: 1.83 ng/mL
AUC(0-t) [2, 7]: 864 ± 69 ng·h/mL
Tmax ([2]; New Zealand White, rabbit, sc, 5 mg/kg, subcutaneous 5 mg/kg/dose, suspension, read-out: tmax): 0.25 h
Tmax ([2]; New Zealand White, rabbit, sc, 5 mg/kg, subcutaneous administration, suspension, read-out: Mean plasma Tmax (converted)): 0.25 h
AUC(0-inf) [2, 7]: 1200 ng·h/mL
Cmax [2, 7]: 395 ± 170 ng/mL
MRT last [2, 7]: 1.58 h
half-life [2, 7]: 2.12 h
concentration at 0.25 hr ([2]; New Zealand White, rabbit, subcutaneous, 5 mg/kg/dose, subcutaneous 5 mg/kg/dose, suspension, 0.25 hr, read-out: plasma Average): 395 ng/mL
concentration at 0.5 hr [2, 8]: 337 ng/mL
concentration at 0.5 hr [2, 9]: 272 ng/mL
concentration at 1 hr ([2]; New Zealand White, rabbit, subcutaneous, 5 mg/kg/dose, subcutaneous 5 mg/kg/dose, suspension, 1.0 hr, read-out: plasma Average): 295 ng/mL
concentration at 1 hr ([2]; New Zealand White, rabbit, subcutaneous, 5 mg/kg/dose, subcutaneous 5 mg/kg/dose, suspension, 1.0 hr, read-out: plasma Conc., individual rabbit): 300 ng/mL
concentration at 2 hr [2, 8]: 206 ng/mL
concentration at 2 hr [2, 9]: 194 ng/mL
concentration at 4 hr [2, 8]: 110 ng/mL
concentration at 4 hr [2, 9]: 111 ng/mL
Dose normalized AUClast [2, 10]: 459 kg·ng·h/mL/mg
Dose normalized AUC∞ [2, 10]: 484 kg·ng·h/mL/mg
Dose normalized AUClast ([2]; intravitreal suspension, normalized by 1.54 mg/kg, listed as Compound 1 (free acid)): 459 ± 34.5 kg·ng·h/mL/mg
Dose normalized AUClast [2, 11]: 173 kg·ng·h/mL/mg
Dose normalized AUC∞ [2, 11]: 240 kg·ng·h/mL/mg
Dose normalized AUClast ([2]; subcutaneous suspension, normalized by 5 mg/kg, listed as Compound 1 (free acid)): 173 ± 13.8 kg·ng·h/mL/mg
Structure (SMILES): COC(=O)N[C@@H](Cc1ccccc1)C(=O)N[C@@H](Cc1ccc(NS(=O)(=O)O)cc1)c1csc(-c2cccs2)n1 [Compound 1 free acid]
